Consider 3 compounds from patent publication US20220340633A1 (Adepthera LLC, priority 2016, published 2022).

The structures appear in SMILES notation. Positions of bridges follow the written chain, without caps; N, C: chain ends. Non-standard residues stand in square brackets, D forms with d. Residues, ends and D or L forms follow the SMILES beside them. *: point of attachment. Palmitoyl = CCCCCCCCCCCCCCCC(=O)*; AEEA = NCCOCCOCC(=O)O

The target of one test is T1, CLR/RAMP2 receptor (Homo sapiens, UniProt O60895+Q16602).
T1 construct: host or cells: CHO-K1 cells
Nature of the test: CLR/RAMP2 arrestin receptor activation assay (agonist). The class given is cell-based. Particulars: CHO-K1, read-out: CLR/RAMP 2 Max Activity % of positive control, CHO-K1 cells; % of positive control (ADM).

The next test concerns the target CLR/RAMP1 receptor (Homo sapiens, UniProt O60894+Q16602). Nature of the test: CLR/RAMP1 cAMP receptor activation assay (agonist). The class given is cell-based. Set-up: host or cells: 1321N1 cells. Particulars: 1321-N1, read-out: CLR/RAMP 1 Max Activity % of positive control, 1321N1 cells; % of positive control (β-CGRP).

T1 sequence (Q16602 23-461): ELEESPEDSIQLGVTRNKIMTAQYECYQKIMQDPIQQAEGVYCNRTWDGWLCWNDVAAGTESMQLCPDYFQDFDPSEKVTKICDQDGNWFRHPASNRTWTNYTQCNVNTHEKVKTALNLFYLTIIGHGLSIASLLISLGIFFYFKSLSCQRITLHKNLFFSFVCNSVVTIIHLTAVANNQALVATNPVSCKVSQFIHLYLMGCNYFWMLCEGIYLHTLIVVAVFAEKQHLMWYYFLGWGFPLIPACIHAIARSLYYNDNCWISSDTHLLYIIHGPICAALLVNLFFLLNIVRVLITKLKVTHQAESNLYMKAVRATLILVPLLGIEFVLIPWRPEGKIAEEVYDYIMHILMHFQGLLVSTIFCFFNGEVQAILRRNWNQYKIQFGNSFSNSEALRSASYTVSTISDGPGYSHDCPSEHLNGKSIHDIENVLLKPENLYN
T1 sequence (O60895 43-175): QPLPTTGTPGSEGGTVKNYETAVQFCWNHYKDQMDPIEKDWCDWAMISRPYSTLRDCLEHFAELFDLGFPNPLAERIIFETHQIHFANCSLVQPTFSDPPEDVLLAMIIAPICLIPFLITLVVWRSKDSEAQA
Chain of CLR/RAMP1 receptor (Q16602 23-461): as the sequence (Q16602 23-461) above
Chain of CLR/RAMP1 receptor (O60894 27-148): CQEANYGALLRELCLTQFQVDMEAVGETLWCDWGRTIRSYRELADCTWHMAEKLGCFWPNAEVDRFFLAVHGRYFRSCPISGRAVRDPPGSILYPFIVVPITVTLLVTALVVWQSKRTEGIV
Experimental for CLR/RAMP1 receptor: Using a receptor activation assay, the dose-dependent stimulatory response of peptide agonists of the present invention on a CLR/RAMP1 receptor, a CLR/RAMP2, or a CLR/RAMP3 receptor complex was determined. A cell line carrying the recombinant CLR/RAMP1, CLR/RAMP2, or a CLR/RAMP3 receptor was employed in the assay. Peptide agonist activities were tested, in duplicate, at 10 different concentrations, starting with 1.0 μM and serially diluted 3-fold, in DMSO. […] The CLR/RAMP1 cAMP, CLR/RAMP2 arrestin assays, and CLR/RAMP3 cAMP (DiscoveRx, Fremont, Calif.) were used.

As to `CCCCCCCCCCCCCCCC(=O)NCCCC[C@H](NC(=O)COCCOCCN)C(=O)NCC(=O)N[C@H]1CSSC[C@@H](C(=O)N[C@H](C(=O)N[C@H](C(=O)N[C@@H](CCC(N)=O)C(=O)N[C@@H](CCCCN)C(=O)N[C@@H](CC(C)C)C(=O)N[C@@H](C)C(=O)N[C@@H](Cc2c[nH]cn2)C(=O)N[C@@H](CCC(N)=O)C(=O)N[C@H](C(=O)N[C@@H](Cc2ccc(O)cc2)C(=O)N[C@@H](CCC(N)=O)C(=O)N[C@@H](Cc2ccccc2)C(=O)N[C@H](C(=O)N[C@@H](CC(=O)O)C(=O)N[C@@H](CCCCN)C(=O)N[C@@H](CC(=O)O)C(=O)N[C@@H](CCCCN)C(=O)N[C@@H](CC(=O)O)C(=O)N[C@@H](CO)C(=O)N[C@@H](C)C(=O)N2CCC[C@H]2C(=O)N[C@H](C(=O)N[C@@H](CC(=O)O)C(=O)N2CCC[C@H]2C(=O)N[C@@H](CO)C(=O)N[C@@H](CO)C(=O)N2CCC[C@H]2C(=O)N[C@@H](Cc2c[nH]cn2)C(=O)N[C@@H](CO)C(=O)N[C@@H](Cc2ccc(O)cc2)C(N)=O)C(C)C)[C@@H](C)O)[C@@H](C)CC)C(C)C)[C@@H](C)O)NC(=O)[C@H]([C@@H](C)O)NC(=O)CNC(=O)[C@H](Cc2ccccc2)NC(=O)[C@H](CCCNC(=N)N)NC1=O` [SEQ ID NO: 46] (H-[AEEA]K(Palmitoyl)GCRFGTCTVQKLAHQIYQFTDKDKDSAPVDPSSPHSY-NH2; disulfide 4-9), the Emax turned out to be 104% on CLR/RAMP2 receptor and 60% at CLR/RAMP1 receptor.

On to `CCCCCCCCCCCCCCCC(=O)NCCCC[C@H](NC(=O)COCCOCCN)C(=O)NCC(=O)N[C@H]1CSSC[C@@H](C(=O)N[C@H](C(=O)N[C@H](C(=O)N[C@@H](CCC(N)=O)C(=O)N[C@@H](CCCCN)C(=O)N[C@@H](CC(C)C)C(=O)N[C@@H](C)C(=O)N[C@@H](Cc2c[nH]cn2)C(=O)N[C@@H](CCC(N)=O)C(=O)N[C@H](C(=O)N[C@@H](Cc2ccc(O)cc2)C(=O)N[C@@H](CCC(N)=O)C(=O)N[C@@H](Cc2ccccc2)C(=O)N[C@H](C(=O)N[C@@H](CC(=O)O)C(=O)N[C@@H](CCCCN)C(=O)N[C@@H](CC(=O)O)C(=O)N[C@@H](CCCCN)C(=O)N[C@@H](CC(=O)O)C(=O)N[C@@H](CC(N)=O)C(=O)N[C@H](C(=O)N[C@@H](C)C(=O)N2CCC[C@H]2C(=O)N[C@H](C(=O)N[C@@H](CC(=O)O)C(=O)N2CCC[C@H]2C(=O)N[C@@H](CO)C(=O)N[C@@H](CO)C(=O)N2CCC[C@H]2C(=O)N[C@@H](Cc2c[nH]cn2)C(=O)N[C@@H](CO)C(=O)N[C@@H](Cc2ccc(O)cc2)C(N)=O)C(C)C)C(C)C)[C@@H](C)O)[C@@H](C)CC)C(C)C)[C@@H](C)O)NC(=O)[C@H]([C@@H](C)O)NC(=O)CNC(=O)[C@H](Cc2ccccc2)NC(=O)[C@H](CCCNC(=N)N)NC1=O` [SEQ ID NO: 50], for which the Emax on CLR/RAMP2 receptor turned out to be 87%; at CLR/RAMP1 receptor, 65%.

For the compound `CCCCCCCCCCCCCCCC(=O)NCCCC[C@H](NC(=O)COCCOCCN)C(=O)NCC(=O)N[C@H]1CSSC[C@@H](C(=O)N[C@H](C(=O)N[C@H](C(=O)N[C@@H](CCC(N)=O)C(=O)N[C@@H](CCCCN)C(=O)N[C@@H](CC(C)C)C(=O)N[C@@H](C)C(=O)N[C@@H](Cc2c[nH]cn2)C(=O)N[C@@H](CCC(N)=O)C(=O)N[C@H](C(=O)N[C@@H](Cc2ccc(O)cc2)C(=O)N[C@@H](CCC(N)=O)C(=O)N[C@@H](Cc2ccccc2)C(=O)N[C@H](C(=O)N[C@@H](CC(=O)O)C(=O)N[C@@H](CCCCN)C(=O)N[C@@H](CC(=O)O)C(=O)N[C@@H](CCCCN)C(=O)N[C@@H](CCC(N)=O)C(=O)N[C@@H](CC(=O)O)C(=O)N[C@@H](CO)C(=O)N[C@@H](C)C(=O)N2CCC[C@H]2C(=O)N[C@H](C(=O)N[C@@H](CC(=O)O)C(=O)N2CCC[C@H]2C(=O)N[C@@H](CO)C(=O)N[C@@H](CO)C(=O)N2CCC[C@H]2C(=O)N[C@@H](Cc2c[nH]cn2)C(=O)N[C@@H](CO)C(=O)N[C@@H](Cc2ccc(O)cc2)C(N)=O)C(C)C)[C@@H](C)O)[C@@H](C)CC)C(C)C)[C@@H](C)O)NC(=O)[C@H]([C@@H](C)O)NC(=O)CNC(=O)[C@H](Cc2ccccc2)NC(=O)[C@H](CCCNC(=N)N)NC1=O` [SEQ ID NO: 51] (H-[AEEA]K(Palmitoyl)GCRFGTCTVQKLAHQIYQFTDKDKQDSAPVDPSSPHSY-NH2; disulfide 4-9), the Emax on CLR/RAMP2 receptor is 107%; on CLR/RAMP1 receptor, 65%.
